Results published in the supplement of paper PMC10307832.

How the values were obtained:
Assay in all cases: relative viability (nuclei count vs DMSO), 5 days (fraction); higher = more cells survive
[1] = tested on: NCI-H2347
Outline: (§1)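 Lung cancer cell lines in 1536-well plates got either a single drug or a fixed anchor-drug dose together with five library-drug doses (not always all listed) in √10 steps, by pin tool, on the day after seeding. Nuclei were counted after 5 days, and relative viability is the treated-to-vehicle ratio of nuclei counts. Values are medians of duplicate plates.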

[2] = tested on: NCI-H2126
Outline: as §1

[3] = tested on: H3255
Outline: as §1

[4] = tested on: NCI-H520
Outline: as §1

[5] = tested on: NCI-H522
Outline: as §1

[6] = tested on: COR-L 105
Outline: as §1

[7] = tested on: NCI-H2087
Outline: as §1

[8] = tested on: NCI-H322M
Outline: as §1

[9] = tested on: 201T
Outline: as §1

[10] = tested on: NCI-H1915
Outline: as §1

[11] = tested on: EPLC-272H
Outline: as §1

[12] = tested on: NCI-H2405
Outline: as §1

**Q.** Which relative viability ([1]; first compound 0.04 µM) does the source give for `COc1cc(N2CCC(C(N)=O)CC2)ccc1Nc1nc(N)c(Cl)c(Nc2ccccc2S(=O)(=O)C(C)C)n1` [HG-5-88-01] + CCNC(=O)c1noc(-c2cc(C(C)C)c(O)cc2O)c1-c1ccc(CN2CCOCC2)cc1 [Luminespib] (partner 0.01 µM) here?
**A.** The relative viability was 0.282.

**Q.** And the relative viability ([1]; first compound 0.1265 µM)?
**A.** Its relative viability is 0.467.

**Q.** And the relative viability ([1]; first compound 0.4 µM)?
**A.** The relative viability was 0.32.

**Q.** And the relative viability ([1]; first compound 1.265 µM)?
**A.** The relative viability was 0.398.

**Q.** And the relative viability ([1]; first compound 4 µM)?
**A.** Its relative viability is 0.339.

**Q.** What about the relative viability ([2]; first compound 0.04 µM) of the same compound?
**A.** The relative viability was 0.836.

**Q.** What about the relative viability ([2]; first compound 0.1265 µM) of the same compound?
**A.** The relative viability was 0.975.

**Q.** And the relative viability ([2]; first compound 0.4 µM)?
**A.** The relative viability was 0.861.

**Q.** What about the relative viability ([2]; first compound 1.265 µM) of the same compound?
**A.** The relative viability was 0.699.

**Q.** And the relative viability ([2]; first compound 4 µM)?
**A.** Its relative viability is 0.57.

**Q.** What about the relative viability ([3]; first compound 0.04 µM) of the same compound?
**A.** Its relative viability is 0.752.

**Q.** And the relative viability ([3]; first compound 0.1265 µM)?
**A.** Its relative viability is 0.913.

**Q.** What about the relative viability ([3]; first compound 0.4 µM) of the same compound?
**A.** The relative viability was 0.818.

**Q.** And the relative viability ([3]; first compound 4 µM)?
**A.** The relative viability was 0.847.

**Q.** What about the relative viability ([4]; first compound 0.04 µM) of the same compound?
**A.** Its relative viability is 0.186.

**Q.** What about the relative viability ([4]; first compound 0.1265 µM) of the same compound?
**A.** The relative viability was 0.225.

**Q.** And the relative viability ([4]; first compound 0.4 µM)?
**A.** Its relative viability is 0.197.

**Q.** What about the relative viability ([4]; first compound 1.265 µM) of the same compound?
**A.** Its relative viability is 0.202.

**Q.** What about the relative viability ([4]; first compound 4 µM) of the same compound?
**A.** The relative viability was 0.247.

**Q.** What about the relative viability ([5]; first compound 0.04 µM) of the same compound?
**A.** Its relative viability is 1.06.

**Q.** And the relative viability ([5]; first compound 0.1265 µM)?
**A.** Its relative viability is 1.16.

**Q.** What about the relative viability ([5]; first compound 0.4 µM) of the same compound?
**A.** The relative viability was 1.05.

**Q.** What about the relative viability ([5]; first compound 1.265 µM) of the same compound?
**A.** The relative viability was 0.852.

**Q.** And the relative viability ([5]; first compound 4 µM)?
**A.** The relative viability was 1.21.

**Q.** And the relative viability ([6]; first compound 0.04 µM)?
**A.** The relative viability was 0.664.

**Q.** And the relative viability ([6]; first compound 0.1265 µM)?
**A.** Its relative viability is 1.02.

**Q.** What about the relative viability ([6]; first compound 0.4 µM) of the same compound?
**A.** The relative viability was 0.851.

**Q.** What about the relative viability ([6]; first compound 1.265 µM) of the same compound?
**A.** The relative viability was 0.903.

**Q.** And the relative viability ([6]; first compound 4 µM)?
**A.** The relative viability was 0.702.

**Q.** What about the relative viability ([7]; first compound 0.04 µM) of the same compound?
**A.** Its relative viability is 0.173.

**Q.** What about the relative viability ([7]; first compound 0.1265 µM) of the same compound?
**A.** Its relative viability is 0.228.

**Q.** And the relative viability ([7]; first compound 0.4 µM)?
**A.** The relative viability was 0.173.

**Q.** What about the relative viability ([7]; first compound 1.265 µM) of the same compound?
**A.** The relative viability was 0.19.

**Q.** What about the relative viability ([7]; first compound 4 µM) of the same compound?
**A.** The relative viability was 0.204.

**Q.** What about the relative viability ([8]; first compound 0.04 µM) of the same compound?
**A.** Its relative viability is 0.782.

**Q.** What about the relative viability ([8]; first compound 0.1265 µM) of the same compound?
**A.** Its relative viability is 0.835.

**Q.** And the relative viability ([8]; first compound 0.4 µM)?
**A.** Its relative viability is 0.555.

**Q.** And the relative viability ([8]; first compound 4 µM)?
**A.** The relative viability was 0.627.

**Q.** And the relative viability ([9]; first compound 0.04 µM)?
**A.** Its relative viability is 1.01.

**Q.** And the relative viability ([9]; first compound 0.1265 µM)?
**A.** The relative viability was 1.04.

**Q.** What about the relative viability ([9]; first compound 0.4 µM) of the same compound?
**A.** The relative viability was 1.08.

**Q.** What about the relative viability ([9]; first compound 1.265 µM) of the same compound?
**A.** The relative viability was 1.03.

**Q.** What about the relative viability ([9]; first compound 4 µM) of the same compound?
**A.** Its relative viability is 1.11.

**Q.** And the relative viability ([10]; first compound 0.04 µM)?
**A.** The relative viability was 0.774.

**Q.** And the relative viability ([10]; first compound 0.1265 µM)?
**A.** The relative viability was 0.755.

**Q.** What about the relative viability ([10]; first compound 0.4 µM) of the same compound?
**A.** Its relative viability is 0.792.

**Q.** What about the relative viability ([10]; first compound 1.265 µM) of the same compound?
**A.** The relative viability was 1.01.

**Q.** What about the relative viability ([10]; first compound 4 µM) of the same compound?
**A.** The relative viability was 0.786.

**Q.** What about the relative viability ([11]; first compound 0.04 µM) of the same compound?
**A.** The relative viability was 0.384.

**Q.** And the relative viability ([11]; first compound 0.1265 µM)?
**A.** The relative viability was 0.269.

**Q.** What about the relative viability ([11]; first compound 0.4 µM) of the same compound?
**A.** The relative viability was 0.347.

**Q.** And the relative viability ([11]; first compound 1.265 µM)?
**A.** The relative viability was 0.181.

**Q.** What about the relative viability ([11]; first compound 4 µM) of the same compound?
**A.** Its relative viability is 0.204.

**Q.** And the relative viability ([12]; first compound 0.04 µM)?
**A.** The relative viability was 0.872.

**Q.** And the relative viability ([12]; first compound 0.1265 µM)?
**A.** The relative viability was 0.692.

**Q.** And the relative viability ([12]; first compound 0.4 µM)?
**A.** The relative viability was 0.594.
